Test results from ChEMBL document CHEMBL1201861, “Genomics of Drug Sensitity in Cancer screening data, Wellcome Trust Sanger Institute”.

The molecules below were run on NCI-H1563 (assay: cells). Conditions: Homo sapiens.
Assay type: functional, cell-based
Description: SANGER: Inhibition of human NCI-H1563 cell growth in a cell viability assay.
With `COc1ccc(-c2cc3nccn3c(Nc3ncccc3C(N)=O)n2)cc1OC` the IC50 was over 8 µM.

Each molecule was assayed on CP50-MEL-B (assay: cells). Conditions: Homo sapiens.
Assay type: functional, cell-based
Description: SANGER: Inhibition of human CP50-MEL-B cell growth in a cell viability assay.
For `COc1ccc(-c2cc3nccn3c(Nc3ncccc3C(N)=O)n2)cc1OC`, the IC50 was over 8 µM.

Each molecule was assayed on KOSC-2 (assay: cells). Conditions: Homo sapiens.
Assay type: functional, cell-based
Description: SANGER: Inhibition of human KOSC-2 cell growth in a cell viability assay.
In the case of `COc1ccc(-c2cc3nccn3c(Nc3ncccc3C(N)=O)n2)cc1OC`, the IC50 is reported as over 8 µM.

Each molecule was assayed on SAS (assay: cells). Conditions: Homo sapiens.
Assay type: functional, cell-based
Description: SANGER: Inhibition of human SAS cell growth in a cell viability assay.
`COc1ccc(-c2cc3nccn3c(Nc3ncccc3C(N)=O)n2)cc1OC` was tested, and the IC50 was over 8 µM.

The molecules below were run on KYSE-180 (assay: cells). Conditions: Homo sapiens.
Assay type: functional, cell-based
Description: SANGER: Inhibition of human KYSE-180 cell growth in a cell viability assay.
Molecule `COc1ccc(-c2cc3nccn3c(Nc3ncccc3C(N)=O)n2)cc1OC` has an IC50 of 5.62 µM.

These molecules were tested on COLO-792 (assay: cells). Conditions: Homo sapiens.
Assay type: functional, cell-based
Description: SANGER: Inhibition of human COLO-792 cell growth in a cell viability assay.
`COc1ccc(-c2cc3nccn3c(Nc3ncccc3C(N)=O)n2)cc1OC` gave an IC50 of over 8 µM.

These molecules were tested on MDA-MB-361 (assay: cells). Conditions: Homo sapiens.
Assay type: functional, cell-based
Molecule `COc1ccc(-c2cc3nccn3c(Nc3ncccc3C(N)=O)n2)cc1OC` has an IC50 of over 8 µM.

The molecules below were run on SK-LU-1 (assay: cells). Conditions: Homo sapiens.
Assay type: functional, cell-based
Description: SANGER: Inhibition of human SK-LU-1 cell growth in a cell viability assay.
With `COc1ccc(-c2cc3nccn3c(Nc3ncccc3C(N)=O)n2)cc1OC` the IC50 was 2.03 µM.

Each molecule was assayed on TE-15 (assay: cells). Conditions: Homo sapiens, TE-15.
Assay type: functional, cell-based, Homo sapiens
Description: SANGER: Inhibition of human TE-15 cell growth in a cell viability assay.
`COc1ccc(-c2cc3nccn3c(Nc3ncccc3C(N)=O)n2)cc1OC` showed an IC50 of 1.28 µM.

Each molecule was assayed on NCI-H650 (assay: cells). Conditions: Homo sapiens.
Assay type: functional, cell-based
Description: SANGER: Inhibition of human NCI-H650 cell growth in a cell viability assay.
For `COc1ccc(-c2cc3nccn3c(Nc3ncccc3C(N)=O)n2)cc1OC`, the IC50 was over 8 µM.

Each molecule was assayed on KYSE-450 (assay: cells). Conditions: Homo sapiens.
Assay type: functional, cell-based
Description: SANGER: Inhibition of human KYSE-450 cell growth in a cell viability assay.
`COc1ccc(-c2cc3nccn3c(Nc3ncccc3C(N)=O)n2)cc1OC` showed an IC50 of 2.32 µM.

Each molecule was assayed on OE19 (assay: cells). Conditions: Homo sapiens.
Assay type: functional, cell-based
Description: SANGER: Inhibition of human OE19 cell growth in a cell viability assay.
`COc1ccc(-c2cc3nccn3c(Nc3ncccc3C(N)=O)n2)cc1OC` showed an IC50 of over 8 µM.

Each molecule was assayed on U-118-MG (assay: cells). Conditions: Homo sapiens.
Assay type: functional, cell-based
Description: SANGER: Inhibition of human U-118-MG cell growth in a cell viability assay.
`COc1ccc(-c2cc3nccn3c(Nc3ncccc3C(N)=O)n2)cc1OC` was tested, and the IC50 was 6.78 µM.

Each molecule was assayed on OPM-2 (assay: cells). Conditions: Homo sapiens, OPM-2.
Assay type: functional, cell-based, Homo sapiens
Description: SANGER: Inhibition of human OPM-2 cell growth in a cell viability assay.
`COc1ccc(-c2cc3nccn3c(Nc3ncccc3C(N)=O)n2)cc1OC` gave an IC50 of 6.16 µM.

Each molecule was assayed on SiHa (assay: cells). Conditions: Homo sapiens.
Assay type: functional, cell-based
Description: SANGER: Inhibition of human SiHa cell growth in a cell viability assay.
Work on `COc1ccc(-c2cc3nccn3c(Nc3ncccc3C(N)=O)n2)cc1OC` yielded an IC50 of over 8 µM.

The molecules below were run on RPMI 8402 (assay: SANGER: Inhibition of human RPMI-8402 cell growth in a cell viability assay.). Conditions: Homo sapiens, RPMI 8402.
Assay type: functional, cell-based
With `COc1ccc(-c2cc3nccn3c(Nc3ncccc3C(N)=O)n2)cc1OC` the IC50 was 1.77 µM.

What follows are molecules tested on ESS-1 (assay: cells). Conditions: Homo sapiens.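 Also: growth inhibition of human ESS-1 cells, read out by a cell viability assay.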
Assay type: functional, cell-based
Description: SANGER: Inhibition of human ESS-1 cell growth in a cell viability assay.
Work on `COc1ccc(-c2cc3nccn3c(Nc3ncccc3C(N)=O)n2)cc1OC` yielded an IC50 of 4.08 µM.

Each molecule was assayed on AGS (assay: cells). Conditions: Homo sapiens.
Assay type: functional, cell-based
Description: SANGER: Inhibition of human AGS cell growth in a cell viability assay.
Work on `COc1ccc(-c2cc3nccn3c(Nc3ncccc3C(N)=O)n2)cc1OC` yielded an IC50 of over 8 µM.

What follows are molecules tested on A 172 (assay: cells). Conditions: Homo sapiens.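 Also: growth inhibition of A172 cells, measured with a cell viability readout.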
Assay type: functional, cell-based
Description: SANGER: Inhibition of human A172 cell growth in a cell viability assay.
For `COc1ccc(-c2cc3nccn3c(Nc3ncccc3C(N)=O)n2)cc1OC`, the IC50 was 2.22 µM.

These molecules were tested on EHEB (assay: cells). Conditions: Homo sapiens.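 Also: growth inhibition of human EHEB cells, read out with a cell viability assay.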
Assay type: functional, cell-based
Description: SANGER: Inhibition of human EHEB cell growth in a cell viability assay.
Molecule `COc1ccc(-c2cc3nccn3c(Nc3ncccc3C(N)=O)n2)cc1OC` has an IC50 of 3.79 µM.

Each molecule was assayed on KMS-12-PE (assay: cells). Conditions: Homo sapiens, KMS-12-PE.
Assay type: functional, cell-based, Homo sapiens
Description: SANGER: Inhibition of human KMS-12-PE cell growth in a cell viability assay.
In the case of `COc1ccc(-c2cc3nccn3c(Nc3ncccc3C(N)=O)n2)cc1OC`, the IC50 is reported as over 8 µM.

These molecules were tested on GMS-10 (assay: cells). Conditions: Homo sapiens.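 Also: growth inhibition of GMS-10 cells, read out as cell viability.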
Assay type: functional, cell-based
Description: SANGER: Inhibition of human GMS-10 cell growth in a cell viability assay.
For `COc1ccc(-c2cc3nccn3c(Nc3ncccc3C(N)=O)n2)cc1OC`, the IC50 was over 8 µM.

What follows are molecules tested on TALL-1 (assay: cells). Conditions: Homo sapiens, TALL-1.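 Also: growth inhibition of cultured human TALL-1 cells, read out by a cell viability assay.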
Assay type: functional, cell-based, Homo sapiens
Description: SANGER: Inhibition of human TALL-1 cell growth in a cell viability assay.
In the case of `COc1ccc(-c2cc3nccn3c(Nc3ncccc3C(N)=O)n2)cc1OC`, the IC50 is reported as over 8 µM.

These molecules were tested on COLO-679 (assay: cells). Conditions: Homo sapiens.
Assay type: functional, cell-based
Description: SANGER: Inhibition of human COLO-679 cell growth in a cell viability assay.
`COc1ccc(-c2cc3nccn3c(Nc3ncccc3C(N)=O)n2)cc1OC` gave an IC50 of over 8 µM.

These molecules were tested on KYSE-410 (assay: cells). Conditions: Homo sapiens.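 Also: growth inhibition of KYSE-410 cells, measured through a cell viability readout.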
Assay type: functional, cell-based
Description: SANGER: Inhibition of human KYSE-410 cell growth in a cell viability assay.
Molecule `COc1ccc(-c2cc3nccn3c(Nc3ncccc3C(N)=O)n2)cc1OC` has an IC50 of 7.22 µM.

The molecules below were run on RPMI-7951 (assay: cells). Conditions: Homo sapiens.
Assay type: functional, cell-based
Description: SANGER: Inhibition of human RPMI-7951 cell growth in a cell viability assay.
With `COc1ccc(-c2cc3nccn3c(Nc3ncccc3C(N)=O)n2)cc1OC` the IC50 was 3.48 µM.

The molecules below were run on SN12C (assay: cells). Conditions: Homo sapiens.
Assay type: functional, cell-based
Description: SANGER: Inhibition of human SN12C cell growth in a cell viability assay.
Molecule `COc1ccc(-c2cc3nccn3c(Nc3ncccc3C(N)=O)n2)cc1OC` has an IC50 of over 8 µM.

Each molecule was assayed on ST486 (assay: SANGER: Inhibition of human ST486 cell growth in a cell viability assay.). Conditions: Homo sapiens, ST486.
Assay type: functional, cell-based
`COc1ccc(-c2cc3nccn3c(Nc3ncccc3C(N)=O)n2)cc1OC` gave an IC50 of 0.576 µM.

The molecules below were run on MDA-MB-175-VII (assay: cells). Conditions: Homo sapiens.
Assay type: functional, cell-based
`COc1ccc(-c2cc3nccn3c(Nc3ncccc3C(N)=O)n2)cc1OC` gave an IC50 of over 8 µM.
